Results published in patent US20140142053A1, “Use of a Composition Comprising Acylated Steryl Glucoside in the Manufacture of a Product” (UNIVERSITI PUTRA MALAYSIA, priority 2011, published 2014).

Experiments:
[1] = test system: low-density lipoprotein (LDL); experiment: percentage change in low-density lipoprotein in diabetic rats (FIG. 5); type: in vivo, rat; settings: compared to white rice-fed and tween-treated rats
[2] = test system: high-density lipoprotein (HDL); experiment: percentage change in high-density lipoprotein in diabetic rats (FIG. 7); type: in vivo, rat; settings: A200: ASG in 200 mg/kg body weight, compared to white-rice fed and metformin-treated rats

Compound | LDL level (percentage change in low-density lipoprotein) ([1]; fed/treated groups) | LDL level (percentage change in low-density lipoprotein) ([1]; A100: ASG in 100 mg/kg body weight) | LDL level (percentage change in low-density lipoprotein) ([1]; A200: ASG in 200 mg/kg body weight) | HDL level (percentage change in high-density lipoprotein) [2]
CN(C)C(=N)N=C(N)N [metformin, reference compound] | reduced | – | – | –
acylated steryl glucoside [ASG] | – | reduced | reduced | increased
